Data published in US8241607B2, “Use of fructose-based compounds for the diagnosis of cancer” (priority 2005, dated 2012).

Columns and labels:
Type in all cases: cell-based
transketolase (TKK) = assay: Transketolase activity in PANC-1 lysates (NADH oxidation); conditions: 5.5 mM fructose, 72 h
Experimental: FIG. 34 depicts quantitation of transketolase activity in pancreatic cancer PANC-1 cells following incubation in 2 mM glucose, 5.5 mM glucose, and 5.5 mM fructose for 24 h, 48 h, and 72 h respectively, in accordance with an embodiment of the present invention.
The inventors believe that fructose-treatment of pancreatic cancer cells led to an increase in TKK-driven nucleic acid synthesis, and thus fructose-treatment would result in an increase in either PANC-1 TKK expression and/or activity in comparison to equivalent glucose concentrations. Western blot analysis on protein lysates derived from fructose-, and glucose-treated PANC-1 cells were performed (5.5 mM fructose, and glucose for 24, and 48 h as per previous protocol) using a specific TKK antibody, and compared TKK expression in the fructose-, and glucose-treated PANC-1 cells. As depicted in FIG. 33, TKK expression at 24 h, and 48 h in protein lysates derived from 5.5 mM glucose-treated PANC-1 cells was increased in comparison to expression in 2 mM glucose-treated cells. […] After gentle mixing the absorbance of the mixture was measured at 10 min intervals for 2 h at 340 nm. Transketolase activity was then derived from the difference in absorbance at 10, and 80 minutes, and expressed as nmol/min/million cells. […] Pancreatic cancer proliferation rates were then measured using the MTS assay (FIG. 35).

MAPK pathway = assay: Western blot of MAPK pathway in PANC-1 cells; conditions: 5.5 mM sugar, 48 h
Experimental: FIG. 23 depicts Western blot analysis examining MAPK pathway expression in accordance with an embodiment of the present invention. PANC-1 pancreatic cancer cells were incubated in 2 mM glucose, 5.5 mM glucose or 5.5 mM fructose for 48 hours, after which Western blot analysis on total protein lysates was employed to examine phosphorylated MEK (pMEK), pRSK, and pCREB, and corresponding total MEK, RSK, and CREB levels.
Several signal transduction pathways may be involved in fructose-mediated pancreatic cancer growth but given the importance of the MAPK pathway in proliferation, the inventors believed that MAPK was involved. In the MAPK pathway, MEK mediated phosphorylation of the p44/42 MAP kinase (ERK) is the first step in this cascade, which results in phosphorylation of p90^Rsk, leading to transcriptional activation of CREB, and AP1, activating gene transcription and promoting cellular growth. The inventors employed Western blot analysis to examine MAPK pathway expression in pancreatic cancer cells incubated in 2 mM glucose, 5.5 mM glucose, and 5.5 mM fructose for 48 hours. Levels of the active phosphorylated proteins, pERK, pRSK, and pMEK were normalized to total ERK, RSK, and MEK levels respectively, and compared between the fructose-, and glucose-treated PANC-1 cells.

AP1 = assay: ELISA-based transbinding AP1 assay in MCF-7 cells; conditions: 5.5 mM sugar, 24 h
Experimental: FIG. 12 depicts an increase in AP1 activation in fructose-treated cells in accordance with an embodiment of the present invention. MCF-7 breast cancer cells were incubated in 2 mM glucose, or 5 mM glucose or fructose for 24 h, after which nuclear extracts were incubated with a biotinylated AP-1 probe in binding buffer. AP-1/AP1 probe complexes were next conjugated to a streptavidin-coated assay plate and detected using an AP-1 specific antibody, followed by binding of a horseradish-peroxidase conjugated secondary antibody, and detection by a colorimetric reagent. *, p<0.001.
Although several signal transduction pathways are likely involved in the fructose-mediated enhanced breast cancer growth and while not wishing to be bound by any particular theory, the inventors believe that the MAP-kinase pathway is involved. The inventors have used Western blot analysis to examine the MAPK pathway in breast cancer cells incubated in 2 mM glucose, 5.5 mM glucose, and 5.5 mM fructose for 48 hours. […] Activation of MEK, and subsequently ERK results in phosphorylation of p90^Rsk, which leads to transcriptional activation of CREB and AP1, which bind to cAMP or AP1 response elements respectively, activating gene transcription and promoting cellular growth.

GLUT-5 mRNA = assay: Quantitative real-time RT-PCR of GLUT-5 mRNA in MCF-7 cells
Experimental: FIG. 10 depicts GLUT-5 expression levels in accordance with an embodiment of the present invention. MCF-7 breast cancer cells were incubated in 2 mM glucose (Glu), 5.5 mM glucose (Glu) or 5.5 mM fructose (Fru) for 4 or 24 hours, after which GLUT-5 expression was quantified using real-time RT-PCR, normalized to GAPDH levels, and expressed as fold-increase compared to GLUT-5 levels detected in MCF-7 cells cultured in 2 mM glucose for a similar time period.
Cellular fructose uptake is facilitated by a member of solute carrier family 2, called glucose transporter type 5 (GLUT-5). Following incubation of MCF-7 breast cancer cells in 2 mM, 5.5 mM glucose or 5.5 mM fructose for […], total RNA was harvested, and analyzed by quantitative real-time RT-PCR analysis using GLUT-5 specific primers to quantify GLUT-5 mRNA expression. GLUT-5 expression was normalized to GAPGH mRNA expression, and expressed as fold-change in comparison to control breast cancer cells incubated in 2 mM glucose for 4, and 24 hours.

O=C(CO)[C@@H](O)[C@H](O)[C@H](O)CO [fructose]
TKK activity in comparison to 5.5 mM glucose-treated cells (transketolase (TKK)): 1.7 fold higher | pERK expression (MAPK pathway): highest | pMEK expression (MAPK pathway): highest | pRSK expression (MAPK pathway): highest | increase in AP1 activation (AP1): 3 fold | increase in GLUT-5 expression (GLUT-5 mRNA; 5.5 mM fructose compared to 5.5 mM glucose, 24 hour incubation): two-fold increase | change in GLUT-5 mRNA expression (GLUT-5 mRNA; 5.5 mM glucose or 5 mM fructose, 4 hours, vs 2 mM glucose): no significant change
